Drawing on US8377949B2, “Quinazolinedione chymase inhibitors” (Boehringer Ingelheim International GmbH, priority 2007, dated 2013), this text covers IC50 for two compounds.

Molecules are shown by their SMILES.

The assay has as its target T1, Chymase (Homo sapiens, UniProt P23946).
T1 sequence (P23946 22-247): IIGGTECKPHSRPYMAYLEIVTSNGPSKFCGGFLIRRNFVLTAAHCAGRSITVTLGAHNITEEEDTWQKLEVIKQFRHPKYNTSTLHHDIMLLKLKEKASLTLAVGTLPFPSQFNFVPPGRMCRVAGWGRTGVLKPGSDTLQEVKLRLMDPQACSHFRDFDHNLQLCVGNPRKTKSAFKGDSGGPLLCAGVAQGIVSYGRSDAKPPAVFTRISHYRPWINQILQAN
The assay can be described thus: In vitro Assay for Inhibition of Chymase. The assay is classed as biochemical. The conditions noted are these: 500 pM chymase, 100 nM rhodamine 110 peptide substrate, 1 hour at 28° C., fluorescence. As to the method:
In vitro Assay for Inhibition of Chymase
Chymase assays were performed in a total volume of 15 μL in Corning black opaque 384-well microtiter plates with a non-binding surface (Coming, N.Y.). The assay buffer was comprised of 20 mM Tris HCl pH 8.0, 50 mM NaCl, 0.01% CHAPS. The test compounds were serially diluted 3-fold with neat DMSO in a 96-well polypropylene plate from a 10 mM DMSO stock to give the 10 point dose response curve. 3 μL of the resulting DMSO solution were transferred to a 384-well polypropylene plate in duplicate, and 37 μL of assay buffer was added. Chymase was added to the assay plate in 3 uL of assay buffer followed by 2 uL of the appropriate compound dilution using a PlateMate Plus (Matrix Technologies Corp., Hudson, N.H.). The reaction was initiated by the addition of 10 uL rhodamine 110, bis-(succinoyl-L-alanyl-L-alanyl-L-prolyl-L-phenylalanylamide) (American Peptides, Sunnyvale, Calif.) in assay buffer containing 150 μM tris(2-carboxyethyl)phosphine (TCEP, Pierce Chemical, Rockford, Ill.) using a Multidrop (Thermo Electron Corp., Waltham, Mass.). Final assay concentrations were 500 pM chymase, 100 nM substrate, 100 μM TCEP, and 1% DMSO. The plates were incubated at 28° C. and 80% humidity for 1 hour, at which time the fluorescence was read on a Viewlux 1430 Microplate Imager (Perkin Elmer Life Sciences, Boston, Mass.) with 485 nm excitation, 530 nm emission, and a fluorescein dichroic mirror. The percentage of control values were calculated relative to assay blanks containing complete reaction minus chymase and a 100% control containing assay buffer with 1% DMSO in place of compound. IC50 values were obtained by fitting the data using XLFit4 (IDBS Software).

Turning to `Cc1cccc2c1c(Cn1c(=O)n([C@H](C(=O)O)c3ccccc3)c(=O)c3ccccc31)cn2C` [(S)-[1-(1,4-Dimethyl-1H-indol-3-ylmethyl)-2,4-dioxo-1,4-dihydro-2H-quinazolin-3-yl]-phenyl-acetic acid], half-maximal inhibition (IC50) was put at 2 nM.

In turn, `CCCC[C@@H](C(=O)O)n1c(=O)c2ccc(OC)cc2n(Cc2cn(C)c3cccc(C)c23)c1=O` [(S)-2-[1-(1,4-Dimethyl-1H-indol-3-ylmethyl)-7-methoxy-2,4-dioxo-1,4-dihydro-2H-quinazolin-3-yl]-hexanoic acid] showed an IC50 of 4.9 nM.

One may read the IC50 as the concentration that inhibits the measured activity by half. Higher therefore signals lower potency.
